Data: patent publication US20150352197A1, “PEPTIDE” (Apitope International NV, priority 2013, published 2015)
Blank lines part the entries; values can stand above or below the substance they belong to. Ends that are not written are not given here.

Tests used:
HLA-DRB1*1501 = biological target: T1, HLA-DRB1*1501 (Homo sapiens, UniProt P01903+P01911); test: Antigen processing independent presentation system: fixed MGAR cells plus peptide-specific T cell hybridomas, IL-2 ELISA; format: cell-based
T1 construct: human cell line expressing HLA-DRB1*1501; host or cells: MGAR cells (human cell line), fixed with paraformaldehyde or fresh
Description: 100 μl of hybridoma cells were cultured with 5×10^4 MGAR cells (human cell line expressing HLA-DRB1*1501, Health Protection Agency Culture Collections, Salisbury, UK) in wells of a flat bottom 96-well plate. 50 μl complete RPMI-10% FCS containing a long peptide at 10 μg/ml or the same volume of DMSO (diluent of the peptide) was added to the wells. After 48 h, 120 μl of supernatant was removed and a mouse IL-2 ELISA (Enzyme-linked immunosorbent assay) performed. Clones that produce IL-2 recognise the antigen used. The remaining supernatants were frozen at −20° C.
96 well plates (Immunosorb 96 well, Nunc, Roskilde, Denmark) were coated with 50 μl/well purified rat anti-mouse IL-2 capture Ab (BD Biosciences, Oxford, UK), diluted 1:250 in carbonate buffer (3.56 g Na2CO3 (Sigma-Aldrich, Saint Louis, Mass.), 8.4 g NaHCO3 (Fisher Scientific, Loughborough, UK), 1 L elgastat water; pH 9.5) and incubated overnight at 4° C. After 2 washes in PBS-Tween (1 L 10× PBS, 9 L distilled water, 0.5 ml Tween (Sigma-Aldrich, Saint Louis, Mass.)), […] of PBS-10% FCS were added and incubated at RT for 1 hour. After 3 washes in PBS-Tween, 50 μl of supernatant or IL-2 standard (BD Biosciences, Oxford, UK) dilutions (in PBS-10% FCS) were added to the wells and incubated 2 h at RT. After 4 washes in PBS-Tween (Sigma-Aldrich, Saint Louis, Mass.), 50 μl/well of biotin rat anti-mouse IL2 (BD Biosciences, Oxford, UK) diluted 1:1000 in 10% FCS/PBS was added and incubated for 1 h at RT. After 4 washes, 50 μl/well extravidin peroxidase (Sigma-Aldrich, Saint Louis, Mass.) diluted 1:1000 in PBS was added and incubated 30 min at RT. After 4 washes, […] of substrate solution* was added and incubated at RT until a clear colour change was seen. The reaction was stopped using 50 μl/well 2M H2SO4 (BDH, Poole, UK) and plates were read at 450 nm (550 nm ref) with an ELISA reader (SpectraMax Pro, Molecular Device, Sunnyvale, Calif.). *Substrate solution: 10 ml phosphate-citrate buffer 0.1M (5.14 ml 0.2M Na2HPO4 (BDH, Poole, UK), 4.86 ml 0.1M citrate (Sigma), 10 ml elgastat water), 0.1 ml of TMB (defrost 3,3′,5,5′-Tetramethylbenzidine at 10 mg/ml in DMSO, Sigma-Aldrich, Saint Louis, Mass.), 6 μl of hydrogen peroxide (Sigma-Aldrich, Saint Louis, Mass.).
The specific clones were then tested for their responses to the 15-mer peptides (POP-1 to POP-12) with fixed or not fixed MGAR cells. For this purpose, 1×10^5 cells from the individual clones are cultured with 5×10^4 fixed or fresh MGAR cells in a 96-well flat bottom plate. […] After 48 h in culture, 120 μl of supernatant was harvested and analysed by ELISA to assess IL-2 production.

[1] = system: splenocytes and lymph node cells; test: In vitro proliferation assay for immunogenicity of the long peptides; format: cell-based, HLA-DRB1*1501 transgenic mice; conditions: HLA-DRB1*1501 mice, FIG. 1
[2] = system: HLA-DRB1*1501 transgenic mice; test: EAE induction by priming with long peptide; format: in vivo; conditions: long peptides, HLA-DRB1*1501 mice, FIG. 1
Description: For each peptide, in silico studies were carried out to predict DR2 (HLA-DRB1*1501) binding capacity, and in vitro (proliferation assay) and in vivo (EAE induction) studies were carried out to investigate response.
HLA-DRB1*1501 transgenic mice were injected with 100 μl containing 100 μg of long peptide in PBS (Lonza, Verviers, Belgium) or PBS alone, and with Complete Freund Adjuvant (CFA; BD Difco, Oxford, UK) with 4 mg/ml Mycobacterium tuberculosis (MTb, BD Difco, Oxford, UK) subcutaneously at the base of the tail. For EAE study, the mice were injected with 200 ng of pertussis toxin at the same time as the priming and 2 days after. The mice were then followed, weight and scored for disease every day.

[3] = system: splenocytes (SPL) and lymph node cells (LNC); test: Ex vivo tolerance assay: apitope pre-treatment, priming with long peptide, then recall proliferation and cytokine production; format: in vivo, HLA-DRB1*1501 mice
[4] = 15-mers spanning HEAL-26, HEAL-26 specific hybridomas from DR2 mice
[5] = LNC (lymph node) of pre-treated mice
[6] = SPL (spleen) of pre-treated mice

identification as apitope (HLA-DRB1*1501; [4]): identified as apitopes
Substance: EKLIETYFSKNYQDY [POP-8, 15-mer overlapping peptide spanning HEAL-26]

Substance: GVLPWNAFPGKVCGSNLLSICKTAEFQM-NH2 (cysteine pairing not given here) [GVLP-28, long peptide from a hydrophilic domain of PLP, residues 207-234]
response in the in vitro study (proliferation assay) [1]: respond
response in the in vivo study (EAE induction) [2]: respond
IL-17 production ([3]; LNC of pre-treated mice): significant inhibition
stimulation index of LNC proliferation ([3]; LNC of pre-treated mice): decrease

Substance: HEALTGTEKLIETYFSKNYQDYEYLI-NH2 [HEAL-26, long peptide from a hydrophilic domain of PLP, residues 36-61]
response in the in vitro study (proliferation assay) [1]: respond
response in the in vivo study (EAE induction) [2]: respond
proliferation (3H-thymidine incorporation) [3, 5]: decrease
IL-17 production ([3]; LNC of pre-treated mice): decrease
proliferation (3H-thymidine incorporation) [3, 6]: decrease
IL-17 production ([3]; SPL of pre-treated mice): decrease
IL-5 production ([3]; pre-treated mice, cell population not specified): increase

identification as apitope (HLA-DRB1*1501; [4]): identified as apitopes
Substance: LTGTEKLIETYFSKN [POP-4, 15-mer overlapping peptide spanning HEAL-26]
proliferation (3H-thymidine incorporation) [3, 5]: inhibition
IFN-γ production ([3]; LNC of pre-treated mice): significant decrease
IL-17 production ([3]; LNC of pre-treated mice): significant decrease
TNF-α production ([3]; LNC of pre-treated mice): significant decrease
proliferation (3H-thymidine incorporation) [3, 6]: inhibition
IFN-γ production ([3]; SPL of pre-treated mice): significant decrease
IL-17 production ([3]; SPL of pre-treated mice): significant decrease
TNF-α production ([3]; SPL of pre-treated mice): significant decrease

identification as apitope (HLA-DRB1*1501; [4]): identified as apitopes
Substance: TEKLIETYFSKNYQD [POP-7, 15-mer overlapping peptide spanning HEAL-26]

Substance: TTCQSIAFPSKTSAS [POP-15, 15-mer overlapping peptide spanning TWTT-28]
proliferation (3H-thymidine incorporation) [3, 5]: significant inhibition
GM-CSF production ([3]; LNC of pre-treated mice): significant inhibition
IFN-γ production ([3]; LNC of pre-treated mice): significant inhibition
IL-17 production ([3]; LNC of pre-treated mice): significant inhibition
cytokine production ([3]; LNC of pre-treated mice): inhibit very well
proliferation (3H-thymidine incorporation) [3, 6]: no difference
GM-CSF production ([3]; SPL of pre-treated mice): less
IFN-γ production ([3]; SPL of pre-treated mice): less
IL-17 production ([3]; SPL of pre-treated mice): less
cytokine production ([3]; SPL of pre-treated mice): inhibit very well

Substance: TWTTCQSIAFPSKTSASIGSLCADARMY-NH2 (cysteine pairing not given here) [TWTT-28, long peptide from a hydrophilic domain of PLP, residues 179-206]
response in the in vitro study (proliferation assay) [1]: respond
response in the in vivo study (EAE induction) [2]: respond
proliferation (3H-thymidine incorporation) [3, 5]: inhibit very well
cytokine production ([3]; LNC of pre-treated mice): inhibit very well
proliferation (3H-thymidine incorporation) [3, 6]: inhibit very well
cytokine production ([3]; SPL of pre-treated mice): inhibit very well

identification as apitope (HLA-DRB1*1501; 15-mers spanning GVLP-28, TWTT-28 specific hybridomas from DR2 mice (so in the source)): identified as an apitope
Substance: VLPWNAFPGKVCGSN [POP-22, 15-mer overlapping peptide spanning GVLP-28]
IL-17 production ([3]; LNC of pre-treated mice): significant inhibition
stimulation index of LNC proliferation ([3]; LNC of pre-treated mice): decrease
